# Laboratory results reported in US20250154163A1, “Pyrimidinone-Containing 17-Beta-Hydroxysteroid Dehydrogenase Type 13 Inhibitors” (ENANTA PHARMACEUTICALS, INC., priority 2023, published 2025).
# Biological target: T1, human HSD17β13 (stable HEK293T cell line overexpressing human HSD17β13) (Homo sapiens, UniProt Q7Z5P4)
# T1 construct: expressed in transfected cells
# T1 sequence (Q7Z5P4 20-300): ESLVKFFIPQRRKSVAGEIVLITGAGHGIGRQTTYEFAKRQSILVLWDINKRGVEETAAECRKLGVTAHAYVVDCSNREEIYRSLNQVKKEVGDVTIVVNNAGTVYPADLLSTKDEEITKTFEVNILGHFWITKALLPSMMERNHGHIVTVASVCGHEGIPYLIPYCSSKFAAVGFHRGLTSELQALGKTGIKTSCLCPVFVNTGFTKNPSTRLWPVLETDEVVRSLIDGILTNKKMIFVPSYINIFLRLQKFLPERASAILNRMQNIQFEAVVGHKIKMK
# Experiment: HSD17β13 inhibitor cell-based screening assay (conversion of estradiol-d2 to estrone-d2 by RF-MS)
# Details: conversion of estradiol-d2 to estrone-d2 after 24 hours
# Method: The purpose of this cell-based assay is to determine the cellular efficacy (IC50) of HSD17β13 inhibitors in a stable HEK293 T cell line overexpressing human HSD17β13. The assay measures by Rapid Fire mass-spectrometry (RF-MS) the conversion of estradiol-d2 to estrone-d2. Cytotoxicity was also assessed via luminescent signal generated by the ATPlite viability assay reagent. To screen compounds for HSD17013 inhibition, black 384-well plates were seeded with 1000× concentration of compounds in a 9-point 1:3 dilution curve (final top concentration of 10 μM) as well as 1000× concentration of 17β-estradiol-d2 (5 μM final concentration) added to all wells. HEK293T cells stably overexpressing human HSD17013 and the parent HEK293T cell lines were then seeded in the plates on top of the compounds and substrate in MEM media containing 1% charcoal/dextran-treated FBS. Supernatant is collected and immediately frozen after 24 hours of incubation, and conversion of estradiol-d2 to estrone-d2 is measured at Pure Honey by RF-MS. The remaining media in the plate was removed from the wells and replaced with ATPlite viability assay reagent. Luminescent signal from the ATPlite reagent was measured on the Envision plate reader. 10 μL of 10 mM compounds stocks (1000×) dissolved in DMSO were pipetted into the appropriate wells on the 384 LDV plate (Labcyte; cat. no.: LP-0200) and the appropriate volumes of DMSO solvent were included onto an intermediate plate to further dilute the compound stocks to complete the 9-pt dose curve (final top concentration of 10 μM). 10 μL per well of 5 mM estradiol-d2 (1000×) (Cayman; item no.: 9002846) (5 μM final concentration) dissolved in DMSO was seeded into the appropriate number of wells on the same source plate as the compounds. The Echo 650 (Labcyte) was used for compound dilutions and dispensing both the compounds and the substrate onto a dry 384-well black assay plate (Falcon/Corning; cat. no.:353962). Afterwards, cells were immediately counted and seeded onto the plate. Cells were cultured for expansion in EMEM (ATCC; cat. no.: 30-2003)+10% FBS (Hyclone; cat. no.: SH3007003)+1×PenStrep (Gibco; cat. no.: 15140-122). All media for stable cell line overexpressing HSD17013 also included […] zeocin (Invitrogen; cat. no.: 46-0509) for selection. To prepare cells for seeding into the 384-well assay plate, cells were trypsinized for 3 minutes in the incubator. The Trypsin-EDTA (0.25%) (Gibco; cat. no.: 25200056) was neutralized with EMEM complete culture medium warmed to 37° C. Cells were then centrifugated at 300×g for 5 minutes at room temperature. The cell pellet was resuspended in phenol red-free MEM (Gibco; cat. no.: 51200-038)+1% charcoal/dextran-treated FBS (Hyclone; cat. no.: SH3006803) and 1×PenStrep warmed to 37° C. Cells were then counted using the TC20 automated cell-counter (Bio-Rad) and disposable duel chamber counting slides (Bio-Rad; cat. no.: 1450016) for a cell density of 1.5E5 cells/mL to then seed into the assay plate at 7.5E3 cells/well with 50 μL of media per well. Prior to the 24-hour time point, a solution of 1% formic acid (10×) (Honeywell; cat. no.: 94318) in MEM phenol red-free MEM+1% charcoal/dextran-treated FBS and 1×PenStrep was made. ATPlite luminescent ATP detection reagent (PerkinElmer; cat. no.: 6016739) was prepared according to the manufacturer's instructions. A new 384-well Falcon plate (collection plate) was seeded with 2 μL per well of 10× formic acid and then 18 μL of cell supernatant was added onto the formic acid, resulting in a 20 μL per well solution of 0.1% formic acid (1×) in supernatant. The plate of collected supernatant was immediately frozen on dry ice before being stored at −80° C. The collection plate was shipped to Momentum Biotechnologies for analysis. The remaining supernatant in the assay plate was discarded and 25 μL of ATPlite reagent was added to each well. […]
row,SMILES,IC50 [nM]
1,"COc1ccc(-c2nc3sc4c(O)c(F)cc(F)c4c3c(=O)n2Cc2cnco2)c(C2CC2)c1 [Example 223, 2-(2-cyclopropyl-4-methoxyphenyl)-5,7-difluoro-8-hydroxy-3-(oxazol-5-ylmethyl)benzo[4,5]thieno[2,3-d]pyrimidin-4(3H)-one]",< 100
2,C/C=C/c1cc2cn[nH]c2cc1-c1nc2sc3c(O)c(Cl)ccc3c2c(=O)n1Cc1cnco1 [Example 206],100 to 500
3,COc1ccc(C2=Nc3sc4c(O)c(Cl)ccc4c3C(=O)C2Cc2ccc(=O)[nH]c2)c(C2CC2)c1 (centres unmarked) [Example 161],< 100
4,O=c1c2c(nc(-c3cc(C(F)(F)F)ccc3C3CC3)n1Cc1cnco1)sc1c(O)c(Cl)ccc12 [Example 136],< 100
5,Cc1cc(-c2nc3sc4c(O)c(Cl)ccc4c3c(=O)n2Cc2cnco2)c(C2CC2)s1 [Example 91],< 100
6,"Cn1cc(Cn2c(-c3ccc(S(C)(=O)=O)cc3C3CC3)nc3sc4c(O)c(Cl)ccc4c3c2=O)ccc1=O [Example 70, 7-chloro-2-(2-cyclopropyl-4-(methylsulfonyl)phenyl)-8-hydroxy-3-((1-methyl-6-oxo-1,6-dihydropyridin-3-yl)methyl)benzo[4,5]thieno[2,3-d]pyrimidin-4(3H)-one]",< 100
7,O=c1c2c(nc(-c3cc(F)c(F)cc3C3CC3)n1Cc1cnn(C(F)(F)F)c1)sc1c(O)c(Cl)ccc12 [Example 211],< 100
8,O=c1c2c(nc(-c3cnc(C(F)(F)F)cc3C3CC3)n1Cc1cnco1)sc1c(O)c(Cl)ccc12 [Example 204],< 100
9,"CS(=O)(=O)c1ccc(-c2nc3sc4c(O)c(Cl)ccc4c3c(=O)n2Cc2ccc(C(F)(F)F)nc2)c(C2CC2)c1 [Example 69, 7-chloro-2-(2-cyclopropyl-4-(methylsulfonyl)phenyl)-8-hydroxy-3-((6-(trifluoromethyl)pyridin-3-yl)methyl)benzo[4,5]thieno[2,3-d]pyrimidin-4(3H)-one]",< 100
10,COc1ccc(-c2nc3sc4c(O)c(Cl)ccc4c3c(=O)n2Cc2cnco2)c(C(C)(C)C)c1 [Example 128],500 to 1000
11,O=c1c2c(nc(-c3cnc(C(F)(F)F)cc3C3CC3)n1Cc1cnc(C(F)(F)F)nc1)sc1c(O)c(Cl)ccc12 [Example 178],< 100

# The next lines start with the values.
row,IC50 [nM],SMILES
1,< 100,"N#Cc1ccc(-c2nc3sc4c(O)c(Cl)ccc4c3c(=O)n2Cc2cnco2)c(C2CC2)c1 [Example 111, 4-(7-chloro-8-hydroxy-3-(oxazol-5-ylmethyl)-4-oxo-3,4-dihydrobenzo[4,5]thieno[2,3-d]pyrimidin-2-yl)-3-cyclopropylbenzonitrile]"
2,500 to 1000,"COc1ccc(-c2nc3sc4c(O)c(Cl)ccc4c3c(=O)n2CC(=O)NCCO)c(C2CC2)c1 [Example 51, 2-(7-chloro-2-(2-cyclopropyl-4-methoxyphenyl)-8-hydroxy-4-oxobenzo[4,5]thieno[2,3-d]pyrimidin-3(4H)-yl)-N-(2-hydroxyethyl)acetamide]"
3,< 100,COc1cc(C2CC2)c(-c2nc3sc4c(O)c(Cl)ccc4c3c(=O)n2Cc2cnco2)cc1C [Example 108]
4,< 100,COc1ccc(-c2nc3sc4c(O)c(Cl)ccc4c3c(=O)n2Cc2cnc(C(F)F)s2)c(C2CC2)c1 [Example 197]
5,< 100,COc1ccc(-c2nc3sc4c(O)c(Cl)ccc4c3c(=O)n2Cc2ccnc(OC)c2)c(C2CC2)c1 [Example 156]
6,< 100,N#Cc1ncc(Cn2c(-c3cc(F)c(F)cc3C3CC3)nc3sc4c(O)c(Cl)ccc4c3c2=O)s1 [Example 210]
7,< 100,COc1ccc(-c2nc3sc4c(O)c(Cl)ccc4c3c(=O)n2Cc2cnc(C(F)(F)F)s2)c(C2CC2)c1 [Example 198]
8,100 to 500,C#CCn1c(-c2ccc(OC)cc2C2CC2)nc2sc3c(O)c(Cl)ccc3c2c1=O [Example 126]
9,< 100,N#Cc1ccc(Cn2c(-c3cc(F)c(F)cc3C3CC3)nc3sc4c(O)c(Cl)ccc4c3c2=O)cn1 [Example 172]
